According to patent US10485844B2, “Methods for treating severe atopic dermatitis by administering an IL-4R inhibitor” (Regeneron Pharmaceuticals, Inc., priority 2016, dated 2019):

System: CYP3A
Assay: Effect of dupilumab on PK of CYP substrate cocktail: midazolam
Settings: oral cocktail before (Day 1) and during dupilumab 300 mg weekly (Day 36); n = 13
Description: Subcutaneous dupilumab was administered as a 600 mg loading dose on Day 8, followed by a weekly dose of 300 mg from Day 15 to Day 50. PK parameters included Geometric Mean Ratios (GMR) of AUClast (area under the plasma concentration-time curve from time zero to the time of the last quantifiable concentration) and Cmax (maximum observed plasma concentration) measured at Day 1 and Day 36, while efficacy assessments included changes in Eczema Area and Severity Index (EASI) scores (scale 0-72).

With Cc1ncc2n1-c1ccc(Cl)cc1C(c1ccccc1F)=NC2 [midazolam, reference compound] the “Geometric Mean Ratio (Day 36/Day 1), AUClast” value was 0.98 and the “Geometric Mean Ratio (Day 36/Day 1), Cmax” value was 1.13.
